These results are taken from ChEMBL document CHEMBL4616630, “Amide-Iminoate Isomerism in Antineuroinflammatory Isoquinoline Alkaloids from Stephania cepharantha” (J Nat Prod, 2020).

pIC50: −log10 of the molar value. A value given as a limit tells only on which side of the number the result lay.

The test deals with BV-2. Put plainly: Ant-inflammatory LPS-induced mouse BV2 cells assessed as reduction in NO production after 24 hrs by Griess reagent based assay. Particulars: BV-2, 24 h. The class given is functional, cell-based. On the technique in general: Griess reagent forms a coloured azo dye with nitrite.
Usually pIC50 stands for the negative decadic logarithm of the IC50, by convention in mol/L. For `COC1=C2[C@H]3Cc4ccc(OC)c(O)c4[C@]2(CCN3C=O)C[C@H](O)[C@@H]1O`, the pIC50 was 4.43.

Take `COC1=C2[C@H]3Cc4ccc(OC)c(O)c4[C@]2(CCN3C=O)C[C@H](O)[C@@H]1OC(C)=O`: the negative logarithm of the IC50 (pIC50) is under 4.00.

As for `COc1cc2c3c(c1OC)C1(C=CC(=O)C=C1)C[C@H]3N(C=O)CC2`, the pIC50 is under 4.00.

Take `COc1ccc2cc1Oc1ccc(cc1)C[C@H]1c3c(cc4c(c3Oc3cc5c(cc3OC)CCN(C=O)[C@@H]5C2)OCO4)CCN1C`: the negative-log IC50 (pIC50) was 4.92.

In the case of `O=CN1CCc2cc3c(c4c2[C@H]1Cc1cc(O)ccc1-4)OCO3`, the pIC50 was under 4.00.

On to `COC1=C2[C@H]3Cc4ccc(OC)c(O)c4[C@]2(CCN3C=O)C[C@H](OC(C)=O)[C@@H]1O`, for which the negative-log IC50 (pIC50) was under 4.00.

`COC1=C2[C@H]3Cc4ccc(OC)c(O)c4[C@]2(CCN3C=O)C[C@H](OC(C)=O)[C@@H]1OC(C)=O`: the pIC50 is under 4.00.

With `COc1ccc2cc1Oc1ccc(cc1)C[C@H]1c3cc(c(OC)cc3CCN1C=O)Oc1c(OC)c(OC)cc3c1[C@@H](C2)N(C)CC3`, the pIC50 is 4.90.

On to `CN(C)c1ccc(O)c2c1C[C@H]1C[C@H]3[C@H](N(C)C)C(O)=C(C(N)=O)C(=O)[C@@]3(O)C(O)=C1C2=O` [MINOCYCLINE], for which the negative logarithm of the IC50 (pIC50) is 4.76.
